Test results: ChEMBL document CHEMBL1201862, “PubChem BioAssay data set” (2004)
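Method: 48-hour compound exposure of cells in 96-well plates, five concentrations, linear interpolation of endpoints. GI50 marks 50% less growth.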 Active and inactive are the calls of the source. Rule as the data show it: active = GI50 up to about 1.1 µM and inactive = higher.

Assays:
Test in all cases: NCI anticancer screen, dose series, 48 h
[1] = test system: IGROV-1
[2] = test system: HOP-92
[3] = test system: UACC-62
[4] = test system: HL-60
[5] = test system: NCI/ADR-RES
[6] = test system: SNB-19
[7] = test system: U-251
[8] = test system: KM12
[9] = test system: A549
[10] = test system: SK-MEL-5
[11] = test system: HCC 2998
[12] = test system: A498
[13] = test system: SW-620
[14] = test system: NCI-H226
[15] = test system: HCT-15
[16] = test system: SK-OV-3
[17] = test system: PC-3
[18] = test system: MCF7
[19] = test system: DU-145
[20] = test system: COLO 205
[21] = test system: SK-MEL-2
[22] = test system: 786-0
[23] = test system: SNB-75
[24] = test system: NCI-H460
[25] = test system: HOP-62
[26] = test system: HCT-116
[27] = test system: UO-31
[28] = test system: MOLT-4
[29] = test system: TK-10
[30] = test system: OVCAR-4
[31] = test system: LOX IMVI
[32] = test system: SF-295
[33] = test system: OVCAR-3
[34] = test system: MDA-MB-231
[35] = test system: Malme-3M
[36] = test system: SF-268
[37] = test system: OVCAR-5
[38] = test system: NCI-H23
[39] = test system: M14
[40] = test system: UACC-257
[41] = test system: SF-539
[42] = test system: SK-MEL-28
[43] = test system: RXF 393
[44] = test system: MDA-MB-435
[45] = test system: MDA-N
[46] = test system: K562
[47] = test system: SR
[48] = test system: T47D
[49] = test system: HT-29
[50] = test system: OVCAR-8
[51] = test system: Hs-578T
[52] = test system: SN12C
[53] = test system: ACHN
[54] = test system: EKVX
[55] = test system: CAKI-1
[56] = test system: CCRF-CEM
[57] = test system: RPMI-8226
[58] = test system: NCI-H522

Structure (SMILES): CN1C/C(=C\c2ccccc2[N+](=O)[O-])C(=O)/C(=C/c2ccccc2[N+](=O)[O-])C1
- GI50 [1]: 442 nM (active)
- GI50 [2]: 1090 nM (active)
- GI50 [3]: 1310 nM (inactive)
- GI50 [4]: 79.6 nM (active)
- GI50 [5]: 1550 nM (inactive)
- GI50 [6]: 6100 nM (inactive)
- GI50 [7]: 1700 nM (inactive)
- GI50 [8]: 1240 nM (inactive)
- GI50 [9]: 3430 nM (inactive)
- GI50 [10]: 1320 nM (inactive)
- GI50 [11]: 1450 nM (inactive)
- GI50 [12]: 1930 nM (inactive)
- GI50 [13]: 173 nM (active)
- GI50 [14]: 3090 nM (inactive)
- GI50 [15]: 251 nM
- GI50 [16]: 2750 nM (inactive)
- GI50 [17]: 1140 nM (inactive)
- GI50 [18]: 408 nM (active)
- GI50 [19]: 1510 nM (inactive)
- GI50 [20]: 164 nM (active)
- GI50 [21]: 2090 nM (inactive)
- GI50 [22]: 192 nM (active)
- GI50 [23]: 1860 nM (inactive)
- GI50 [24]: 2570 nM (inactive)
- GI50 [25]: 2950 nM (inactive)
- GI50 [26]: 215 nM (active)
- GI50 [27]: 373 nM (active)
- GI50 [28]: 192 nM (active)
- GI50 [29]: 893 nM (active)

Structure (SMILES): CN(C)CCNc1ccc([N+](=O)[O-])c2nc3ccccc3c(N)c12
- GI50 [30]: 740 nM (active)
- GI50 [1]: 456 nM (active)
- GI50 [2]: 547 nM (active)
- GI50 [3]: 1150 nM (inactive)
- GI50 [4]: 741 nM (active)
- GI50 [5]: 569 nM (active)
- GI50 [6]: 895 nM (active)
- GI50 [7]: 703 nM (active)
- GI50 [31]: 375 nM (active)
- GI50 [8]: 381 nM (active)
- GI50 [9]: 439 nM (active)
- GI50 [32]: 711 nM (active)
- GI50 [33]: 532 nM (active)
- GI50 [10]: 1410 nM (inactive)
- GI50 [34]: 695 nM (active)
- GI50 [35]: 443 nM (active)
- GI50 [36]: 507 nM (active)
- GI50 [37]: > 10000 nM (inactive)
- GI50 [38]: 889 nM (active)
- GI50 [39]: 574 nM (active)
- GI50 [40]: 2180 nM (inactive)
- GI50 [13]: 297 nM (active)
- GI50 [14]: > 10000 nM (inactive)
- GI50 [15]: 444 nM
- GI50 [16]: 152 nM (active)
- GI50 [17]: 405 nM (active)
- GI50 [41]: 536 nM (active)
- GI50 [42]: 3830 nM (inactive)
- GI50 [18]: > 10000 nM (inactive)
- GI50 [43]: 1050 nM (active)
- GI50 [19]: 804 nM (active)
- GI50 [20]: 182 nM (active)
- GI50 [44]: 615 nM (active)
- GI50 [45]: 585 nM (active)
- GI50 [21]: 1990 nM (inactive)
- GI50 [46]: 341 nM (active)
- GI50 [47]: 282 nM (active)
- GI50 [48]: 480 nM (active)
- GI50 [49]: 318 nM (active)
- GI50 [50]: 792 nM (active)
- GI50 [51]: 3960 nM (inactive)
- GI50 [22]: 535 nM (active)
- GI50 [52]: 783 nM (active)
- GI50 [23]: 841 nM (active)
- GI50 [24]: 318 nM (active)
- GI50 [53]: 313 nM (active)
- GI50 [54]: 607 nM (active)
- GI50 [55]: 1840 nM (inactive)
- GI50 [25]: 2260 nM (inactive)
- GI50 [56]: 241 nM (active)
- GI50 [26]: 261 nM (active)
- GI50 [27]: 757 nM (active)
- GI50 [28]: 434 nM (active)
- GI50 [29]: 2530 nM (inactive)
- GI50 [57]: 310 nM (active)

Structure (SMILES): CC(NCc1c(O)ccc2ccc(=O)oc12)C(=O)O (stereo unspecified)
- GI50 [30]: > 100000 nM (inactive)
- GI50 [1]: > 100000 nM (inactive)
- GI50 [2]: > 100000 nM (inactive)
- GI50 [3]: > 100000 nM (inactive)
- GI50 [4]: > 100000 nM (inactive)
- GI50 [5]: > 100000 nM (inactive)
- GI50 [6]: > 100000 nM (inactive)
- GI50 [7]: > 100000 nM (inactive)
- GI50 [31]: > 100000 nM (inactive)
- GI50 [8]: > 100000 nM (inactive)
- GI50 [9]: > 100000 nM (inactive)
- GI50 [32]: > 100000 nM (inactive)
- GI50 [33]: > 100000 nM (inactive)
- GI50 [10]: > 100000 nM (inactive)
- GI50 [34]: > 100000 nM (inactive)
- GI50 [11]: > 100000 nM (inactive)
- GI50 [35]: > 100000 nM (inactive)
- GI50 [36]: > 100000 nM (inactive)
- GI50 [37]: > 100000 nM (inactive)
- GI50 [38]: > 100000 nM (inactive)
- GI50 [39]: > 100000 nM (inactive)
- GI50 [40]: > 100000 nM (inactive)
- GI50 [13]: > 100000 nM (inactive)
- GI50 [14]: > 100000 nM (inactive)
- GI50 [15]: > 100000 nM
- GI50 [16]: > 100000 nM (inactive)
- GI50 [17]: > 100000 nM (inactive)
- GI50 [41]: > 100000 nM (inactive)
- GI50 [42]: > 100000 nM (inactive)
- GI50 [18]: > 100000 nM (inactive)
- GI50 [43]: > 100000 nM (inactive)
- GI50 [19]: > 100000 nM (inactive)
- GI50 [58]: > 100000 nM (inactive)
- GI50 [20]: > 100000 nM (inactive)
- GI50 [44]: > 100000 nM (inactive)
- GI50 [45]: > 100000 nM (inactive)
- GI50 [21]: > 100000 nM (inactive)
- GI50 [46]: > 100000 nM (inactive)
- GI50 [47]: > 100000 nM (inactive)
- GI50 [48]: > 100000 nM (inactive)
- GI50 [49]: > 100000 nM (inactive)
- GI50 [50]: > 100000 nM (inactive)
- GI50 [51]: > 100000 nM (inactive)
- GI50 [22]: > 100000 nM (inactive)
- GI50 [52]: > 100000 nM (inactive)
- GI50 [23]: > 100000 nM (inactive)
- GI50 [24]: > 100000 nM (inactive)
- GI50 [53]: > 100000 nM (inactive)
- GI50 [54]: > 100000 nM (inactive)
- GI50 [55]: > 100000 nM (inactive)
- GI50 [25]: > 100000 nM (inactive)
- GI50 [56]: > 100000 nM (inactive)
- GI50 [26]: > 100000 nM (inactive)
- GI50 [27]: > 100000 nM (inactive)
- GI50 [28]: > 100000 nM (inactive)
- GI50 [29]: > 100000 nM (inactive)
- GI50 [57]: > 100000 nM (inactive)
